One block for each compound: values may come before it.
Assays:
STING [1] = molecular target: T1, STING (Homo sapiens, UniProt Q86WV6); assay: Western Blot analysis for STING degradation (DC50) in HFF-1 cells; assay type: cell-based; set-up: host or cells: HFF-1 human foreskin fibroblasts; settings: 24h; reference protein beta-actin
Description: To assess STING degradation in human foreskin fibroblasts HFF-1 cells (ATCC, SCRC-1041) cells were seeded at a density of 60.000 cells/well in 24-well Nunclon Delta surface treated culture plate in DMEM growth medium (supplemented with 10% FBS, 1% Pen-strep). Cells were incubated over-night at 37°C 5% CO2 to allow adhesion. Next day growth medium was renewed and a 5x concentration of test compounds (2.5% DMSO) diluted in growth medium were added to the appropriate well. The final DMSO concentration were 0.5%. Cell culture plates were returned to the incubator for additional 24h.
(§1) For cell lysing for Western Blot analysis cell culture plates were brought to ice, supernatant was removed by aspiration and cells washed 2x in ice-cold DPBS. Cells were lysed in 65 µL of RIPA buffer supplemented with cOmplete ULTRA Tablets protease inhibitor cocktail, PIERCE Phosphatase inhibitor mini tablet, Benzonase and 10mM NaF for 20 min on ice. Lysates were collected, cleared by centrifugation (13000xg for 10 min at 4°C). Samples were either analysed directly or stored at -80°C until analysis.
(§2) For Western Blotting, total protein concentration in each lysate was determined using PIERCE Gold BCA Assay kit according to manufactures protocol. 6 µg of total protein was mixed with 2x Laemmli buffer containing DTT, boiled for 5 min at 95°C, cooled on ice and loaded into each well of a 4-20% Criterion TGX gel. Proteins were separated by electrophoresis, by running for 1h at 150V. After separation proteins were blotted onto a PVDF membrane by semi-dry transfer using Trans-Blot turbo system at pre-defined BioRad MIDI protocol; 25V, 1A (fixed) for 30 min. Membranes were blocked for 1h in 5% skim milk in TBS-T20 on a rocker at room temperature followed by washing and exposure to primary antibodies against human STING 1:1000 (Cell Signalling, #13647) or loading controls Vinculin 1:1000 (Cell Signalling, #13901) or beta-Actin 1:10000 (Sigma, A5441) all diluted in 5% BSA in TBS-T20. Membranes were probed over night at 4°C on a rocker. Membranes were washed 3x in TBS-T20 followed by exposure to secondary HRP-conjugated anti-rabbit antibody or HRP-conjugated anti-mouse antibody diluted 1:10000 in 5% skim milk in TBS-T20 as appropriate. Membranes were incubated for 1h at room temperature on a rocker, then washed 3x in TBS-T20.
(§3) For generating DC50 values, the intensity of individual bands was measured using imaged and expression levels were calculated as a ratio of STING intensities vs. Reference protein intensities and normalized to DMSO control. The normalized ratios were plotted on a XY curve in GraphPad Prism where DC50 was estimated using a 4-parameter non-linear regression fitting curve.

[2] = molecular target: T2, C-terminal domain (CTD) of human STING (Homo sapiens, UniProt Q86WV6); assay: STING binding FP assay III; set-up: recombinant human STING protein (155-379); settings: 10 nM STING (FP assay III according to the text); read-out: STING binding FP assay II, IC50
T2 sequence (Q86WV6 155-379): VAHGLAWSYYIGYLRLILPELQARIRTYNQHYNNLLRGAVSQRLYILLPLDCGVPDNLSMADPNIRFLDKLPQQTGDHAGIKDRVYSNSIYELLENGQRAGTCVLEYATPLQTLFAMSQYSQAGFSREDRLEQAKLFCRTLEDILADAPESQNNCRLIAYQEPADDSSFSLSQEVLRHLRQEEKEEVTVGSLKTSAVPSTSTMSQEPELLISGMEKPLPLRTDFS
Description: (§4) The interaction between molecules and the C-terminal domain (CTD) of human STING was evaluated using a competition binding assay. In this assay, recombinant human STING protein (155-379) and a STING binding fluorescent probe were employed. Upon binding of the probe to STING, the rotation of the fluorescent probe is slowed due to the larger molecular size of the protein-bound complex. As a result, emitted light retains its plane of polarization, leading to an increase in fluorescence polarization. Molecules competing for the probe binding site displace the probe, which leads to rapid randomization of the polarization plane of the emitted light and a subsequent decrease in measured fluorescence polarization signal. Change in polarization was measured, allowing a comparative evaluation of the binding affinities of different compounds to the target protein.
(§5) The assay was performed in 96-well plates (ThermoFisher, cat.# 237108) containing 100µl : 10 µL test compound in 10% DMSO and buffer A (150 mM NaCl, 50 mM HEPES pH 7.5, 1 mM DTT) + 90 µL prepared master mix solution of: 4 nM fluorescein-labelled STING ligand (Probe 1; synthesis described above) in buffer A + 0.055% Tween-20 (v/v) and 35 nM STING in buffer A. Post mixing, plates were agitated at 600rpm and incubated for 20 min at room temperature. Subsequent measurements of the fluorescence polarization signal were made on a BioTek Synergy-H1 plate reader, using a polarization filter; Exc: 485/20 nm, Em: […]) with a gain-setting of 75. IC50 values were determined using a standard non-linear regression four-parameter curve fit in Graphpad Prism.
The procedure for STING binding FP assay III is the same as described for STING binding FP assay I, except for a lower STING concentration. In STING binding FP assay III, a concentration of 10 nM STING in buffer A was used.

STING [3] = molecular target: T1, STING; assay: Western Blot analysis of STING phosphorylation in human fibroblast cells (STING agonism); assay type: cell-based; set-up: host or cells: HFF-1 human foreskin fibroblasts; settings: 7.2µM-3.6nM; 24h
Description: Human fibroblast were treated with a titration of E22, E9, E14 and E16 (7.2µM-3.6nM) for 24h prior to cell lysis and subsequently total STING, pSTING and Vinculin were assessed by western blot using rabbit anti-STING (1:1000), anti-pSTING (1:1000), anti-Vinculin (1:1000) and 2nd anti-rabbit-HRP (1:10.000) or anti-mouse-HRP (1:7500). Proteins were visualized using ImageQuant800. Control cells included untreated cells and cells treated with 300nM diABZI C3.

STING [4] = molecular target: T1, STING; assay: Western Blot analysis for STING degradation in H596 cells; assay type: cell-based; settings: 24h; reference protein beta-actin
Description: as §1, §2, §3
To assess STING degradation in H596 cells (ATCC, HTB-178) cells were seeded at a density of 100.000 cells/well in 24-well Nunclon Delta surface treated culture plate in RPMI-1640 growth medium (supplemented with 10% FBS, 1% Pen-strep). Cells were incubated over-night at 37°C 5% CO2 to allow adhesion. Next day growth medium was renewed and a 5x concentration of test compounds (2.5% DMSO) diluted in growth medium were added to the appropriate well. Final DMSO concentration was 0.5%. Cell culture plates were returned to the incubator for additional 24h. Final test compound concentrations were 0.22 µM, 0.67 µM, 2 µM and 6 µM.
For cell lysis, western blotting and data analysis, the methods described above for HFF-1 cells were applied.

STING [5] = molecular target: T1, STING; assay: Western Blot analysis of inhibition of STING activation in HFF-1 cells; assay type: cell-based; set-up: host or cells: HFF-1 human foreskin fibroblasts; settings: for STING, TBK1 and IRF1 phosphorylation: 2 h or 5 h
Description: (§6) To assess whether S1 STING ligands inhibit STING activation, primary human skin fibroblasts (Figure 5) or HFF-1 cells (Figure 6) were treated with various compounds which comprise only an S1 ligand domain and a Linker domain before undergoing Western Blot analysis as described below.
The cells were lysed and analysed on WB. […] The WB membrane was probed for p-STING, STING, p-IRF3, p-TBK1, and Vinculin.

STING [6] = molecular target: T1, STING; assay: Western Blot analysis for S1 STING ligand antagonism in primary human skin fibroblasts; assay type: cell-based; set-up: host or cells: HFF-1 human foreskin fibroblasts; settings: 5 µM; 2 h or 1 h before, simultaneously with, or 15 minutes after 0.3 µM diABZI
Description: as §6, with “below. Compounds A9, A11, A26 and A30 used in the following experiments share a common S1 ligand, which is also shared by Example compounds 1, 3, 5-29, 33-38.” for “below.”
Cells were incubated with A9 or A11 for 1 or 2 hours before addition of diABZI c3, treated with test compound and diABZI c3 simultaneously, or treated with A9 or A11 after 15 minutes incubation with diABZI c3. As a control, cells were also treated with diABZI c3 alone.

[7] = molecular target: T2, C-terminal domain (CTD) of human STING; assay: STING binding FP assay II; set-up: recombinant human STING protein (155-379); settings: 7 nM STING
Description: as §4, §5
The procedure for STING binding FP assay II is the same as described for STING binding FP assay I, except for a lower STING concentration. In STING binding FP assay II, a concentration of 7 nM STING in buffer A was used.

T1 sequence (Q86WV6 whole entry): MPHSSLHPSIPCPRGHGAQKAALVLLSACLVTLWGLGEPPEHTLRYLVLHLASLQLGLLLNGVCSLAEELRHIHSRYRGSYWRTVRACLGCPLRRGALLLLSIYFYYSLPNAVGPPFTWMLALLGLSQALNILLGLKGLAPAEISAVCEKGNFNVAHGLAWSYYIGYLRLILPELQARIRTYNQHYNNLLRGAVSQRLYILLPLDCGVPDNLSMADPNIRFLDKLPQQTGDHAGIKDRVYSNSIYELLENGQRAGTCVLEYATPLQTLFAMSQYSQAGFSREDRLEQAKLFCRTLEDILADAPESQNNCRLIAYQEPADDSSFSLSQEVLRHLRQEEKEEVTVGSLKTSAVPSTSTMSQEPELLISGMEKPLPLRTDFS

SMILES: CCn1nc(C)cc1C(=O)N=c1n(C)c2cc(C(N)=O)ccc2n1CCC(CCn1c(=NC(=O)c2cc(C)nn2CC)n(C)c2cc(C(N)=O)ccc21)OCC(=O)NCCOCCOCCOCCOCCC(=O)NCCOCCOCCNc1cccc2c1C(=O)N(C1CCC(=O)NC1=O)C2=O (stereo not drawn) [Example 23, N-[2-(2-{2-[2-(2,6-Dioxo-3-piperidyl)-1,3-dioxo-4-isoindolinylamino]ethoxy}ethoxy)ethyl]15-{[(3-{5-carbamoyl-2-[(1-ethyl-3-methyl-5-pyrazolyl)carbonylimino]-3-methyl-2,3-dihydro-1H-1,3-benzimidazol-1-yl}-1-(2-{5-carbamoyl-2-[(1-ethyl-3-methyl-5-pyrazolyl)carbonylimino]-3-methyl-2,3-dihydro-1H-1,3-benzimidazol-1-yl}ethyl)propoxy)methyl]carbonylamino}-4,7,10,13-tetraoxapentadecanamide]
DC50 (STING [1]): 200 to 1000 nM | IC50 [2]: 2.9 nM

SMILES: CCn1nc(C)cc1C(=O)N=c1n(C)c2cc(C(N)=O)ccc2n1CCC(CCn1c(=NC(=O)c2cc(C)nn2CC)n(C)c2cc(C(N)=O)ccc21)OCC(=O)NCCOCCOCCOCCOCCC(=O)N(C)CCOCCOCCOCCOCCC(=O)N[C@H](C(=O)N1C[C@H](O)C[C@H]1C(=O)N[C@@H](C)c1ccc(-c2scnc2C)cc1)C(C)(C)C (stereo partly drawn) [Example 27]
DC50 (STING [4]): < 200 nM | IC50 [2]: 4.5 nM

SMILES: CCn1nc(C)cc1C(=O)N=c1n(C)c2cc(C(N)=O)ccc2n1CCC(CCn1c(=NC(=O)c2cc(C)nn2CC)n(C)c2cc(C(N)=O)ccc21)OCC(=O)NCCOCCOCCOCCOCCOc1cccc(C(=O)c2csc([C@@H]3CCCN3C(=O)[C@@H](NC(=O)[C@H](C)NC)C3CCCCC3)n2)c1 (stereo partly drawn) [Example 9]
STING phosphorylation (pSTING) (STING [3]): no STING phosphorylation was observed | IC50 [7]: 8.4 nM

More lines, main results first:

STING phosphorylation (pSTING) (STING [3]): no STING phosphorylation was observed
SMILES: CCn1nc(C)cc1C(=O)N=c1n(C)c2cc(C(N)=O)ccc2n1CCC(CCn1c(=NC(=O)c2cc(C)nn2CC)n(C)c2cc(C(N)=O)ccc21)OCC(=O)NCCOCCOCCOCCOc1cccc(C(=O)c2csc([C@@H]3CCCN3C(=O)[C@@H](NC(=O)[C@H](C)NC)C3CCCCC3)n2)c1 (stereo partly drawn) [Example 22]

LC3B lipidation (STING [6]): reduced LC3B lipidation | P-STING intensity (activation of STING) (STING [6]): reduced intensity of P-STING | P-TBK1 intensity (STING [6]): reduced P-TBK1 intensity
SMILES: CCn1nc(C)cc1C(=O)N=c1n(C)c2cc(C(N)=O)ccc2n1CCC(CCn1c(=NC(=O)c2cc(C)nn2CC)n(C)c2cc(C(N)=O)ccc21)OCC(=O)N1CCC[C@H]1c1cccc(OC)c1 (stereo partly drawn) [Example A11, 1-(3-{2-[(S)-2-(3-Methoxyphenyl)-1-pyrrolidinyl]-2-oxoethoxy}-5-{5-carbamoyl-2-[(1-ethyl-3-methyl-5-pyrazolyl)carbonylimino]-3-methyl-2,3-dihydro-1H-1,3-benzimidazol-1-yl}pentyl)-2-[(1-ethyl-3-methyl-5-pyrazolyl)carbonylimino]-3-methyl-2,3-dihydro-1H-1,3-benzimidazole-5-carboxamide]
STING, TBK1 and IRF1 phosphorylation (STING [5]; 5 µM for 15 min prior to 300 nM diABZI): lower compared to cells treated with diABZI c3 alone | STING, TBK1 and IRF1 phosphorylation (STING [5]; 5 µM for 15 min prior to 8 µg/mL cGAMP): lower compared to cells treated with cGAMP alone | phosphorylation of STING, IRF1 or TBK1 (agonism) (STING [5]; compound as single agent, no activation): no phosphorylation of STING, IRF1 or TBK1 was observed

DC50 (STING [1]): < 200 nM | IC50 [2]: 3.1 nM
SMILES: CCn1nc(C)cc1C(=O)N=c1n(C)c2cc(C(N)=O)ccc2n1CCC(CCn1c(=NC(=O)c2cc(C)nn2CC)n(C)c2cc(C(N)=O)ccc21)OCC(=O)NCCOCCOCCOCCOCCC(=O)NCCOCCOCCOCCOCCOCCNc1cccc2c1C(=O)N(C1CCC(=O)NC1=O)C2=O (stereo not drawn) [Example 25]
